Species: Rattus norvegicus
Assay: Open TG-GATES - Regimen: Single
Assay type: toxicity, organism-based, Sprague-Dawley
Design: regimen Single, gender Male, age 6 weeks
Settings: in vivo, po, route gavage; for gamma-GTP / ALP / ALT / AST / BUN / Ca / Cl / DBIL / GLC / IP / K / LDH / Na / PL / RALB / TBIL / TC / TP / CRE: tissue Plasma; for APTT / Bas / Eos / Fbg / Hb / Ht / Lym / MCH / MCHC / MCV / Mono / Neu / PT / Plat / RBC / Ret / WBC: tissue Blood; for KIDNEY_L / KIDNEY_R / KIDNEY_TOTAL: tissue Kidney; for LIVER: tissue Liver
[1] = 15 mg/kg, 24 h, dose level High
[2] = 50 mg/kg, 3 h, dose level Middle
[3] = 50 mg/kg, 6 h, dose level Middle

O=P1(N(CCCl)CCCl)NCCCO1 (stereo unspecified) [CYCLOPHOSPHAMIDE ANHYDROUS]
gamma-GTP (15 mg/kg, 9 h, dose level High): 1 IU/L
ALP (15 mg/kg, 9 h, dose level Low): 1388.6 IU/L
ALT (15 mg/kg, 9 h, dose level Low): 31.2 IU/L
AST (15 mg/kg, 9 h, dose level Low): 67.6 IU/L
BUN (15 mg/kg, 9 h, dose level Low): 8.2 mg/dL
Ca (15 mg/kg, 9 h, dose level Low): 10.6 mg/dL
Cl (15 mg/kg, 9 h, dose level Low): 106.6 meq/L
DBIL (15 mg/kg, 9 h, dose level Low): 0.012 mg/dL
GLC (15 mg/kg, 9 h, dose level Low): 163.8 mg/dL
IP (15 mg/kg, 9 h, dose level Low): 10.3 mg/dL
K (15 mg/kg, 9 h, dose level Low): 4.4 meq/L
LDH (15 mg/kg, 9 h, dose level Low): 55.2 IU/L
Na (15 mg/kg, 9 h, dose level Low): 142.2 meq/L
PL (15 mg/kg, 9 h, dose level Low): 135.8 mg/dL
RALB (15 mg/kg, 9 h, dose level Low): 2.5 g/dL
TBIL (15 mg/kg, 9 h, dose level Low): 0.058 mg/dL
TC (15 mg/kg, 9 h, dose level Low): 77.4 mg/dL
TP (15 mg/kg, 9 h, dose level Low): 5.2 g/dL
gamma-GTP (15 mg/kg, 9 h, dose level Low): 1.2 IU/L
TERMINAL_BW [1]: 195.1 g
TERMINAL_BW (15 mg/kg, 24 h, dose level Low): 205.2 g
APTT [1]: 21.5 s
Bas [1]: 0%
Eos [1]: 0.8%
Fbg [1]: 304 mg/dL
Hb [1]: 13.6 g/dL
Ht [1]: 40.8%
Lym [1]: 88.2%
MCH [1]: 21.2 pg
MCHC [1]: 33.4%
MCV [1]: 63.5 fL
Mono [1]: 2.4%
Neu [1]: 8%
PT [1]: 16.2 s
Plat [1]: 117.1 x10_4/uL
RBC [1]: 643 x10_4/ul
Ret [1]: 5.3%
WBC [1]: 44.1 x10_2/uL
APTT (15 mg/kg, 24 h, dose level Low): 17.5 s
Fbg (15 mg/kg, 24 h, dose level Low): 286.4 mg/dL
Hb (15 mg/kg, 24 h, dose level Low): 12.9 g/dL
Ht (15 mg/kg, 24 h, dose level Low): 38.1%
Lym (15 mg/kg, 24 h, dose level Low): 85.4%
MCH (15 mg/kg, 24 h, dose level Low): 20.7 pg
MCHC (15 mg/kg, 24 h, dose level Low): 34%
MCV (15 mg/kg, 24 h, dose level Low): 60.9 fL
Mono (15 mg/kg, 24 h, dose level Low): 2%
Neu (15 mg/kg, 24 h, dose level Low): 11.2%
PT (15 mg/kg, 24 h, dose level Low): 14.1 s
Plat (15 mg/kg, 24 h, dose level Low): 116.3 x10_4/uL
RBC (15 mg/kg, 24 h, dose level Low): 625.2 x10_4/ul
Ret (15 mg/kg, 24 h, dose level Low): 6.8%
WBC (15 mg/kg, 24 h, dose level Low): 48.9 x10_2/uL
KIDNEY_L [1]: 0.9 g
KIDNEY_R [1]: 0.9 g
KIDNEY_TOTAL [1]: 1.8 g
LIVER [1]: 8.6 g
LIVER (15 mg/kg, 24 h, dose level Low): 9.1 g
ALP [1]: 1751 IU/L
ALT [1]: 45 IU/L
AST [1]: 71 IU/L
BUN [1]: 14.6 mg/dL
CRE [1]: 0.2 mg/dL
Ca [1]: 10.8 mg/dL
Cl [1]: 104.8 meq/L
DBIL [1]: 0.006 mg/dL
GLC [1]: 179 mg/dL
IP [1]: 8.4 mg/dL
K [1]: 4.3 meq/L
LDH [1]: 195.4 IU/L
Na [1]: 142.4 meq/L
PL [1]: 143.6 mg/dL
RALB [1]: 3.1 g/dL
TBIL [1]: 0.02 mg/dL
TC [1]: 75 mg/dL
TP [1]: 5.5 g/dL
gamma-GTP [1]: 1.2 IU/L
ALP (15 mg/kg, 24 h, dose level Low): 1404.4 IU/L
ALT (15 mg/kg, 24 h, dose level Low): 40.2 IU/L
AST (15 mg/kg, 24 h, dose level Low): 71.4 IU/L
BUN (15 mg/kg, 24 h, dose level Low): 14.4 mg/dL
Ca (15 mg/kg, 24 h, dose level Low): 11.1 mg/dL
Cl (15 mg/kg, 24 h, dose level Low): 105.2 meq/L
DBIL (15 mg/kg, 24 h, dose level Low): 0.02 mg/dL
GLC (15 mg/kg, 24 h, dose level Low): 176.4 mg/dL
IP (15 mg/kg, 24 h, dose level Low): 8.1 mg/dL
K (15 mg/kg, 24 h, dose level Low): 4.5 meq/L
LDH (15 mg/kg, 24 h, dose level Low): 82 IU/L
Na (15 mg/kg, 24 h, dose level Low): 140.8 meq/L
PL (15 mg/kg, 24 h, dose level Low): 159.4 mg/dL
RALB (15 mg/kg, 24 h, dose level Low): 2.6 g/dL
TBIL (15 mg/kg, 24 h, dose level Low): 0.06 mg/dL
TC (15 mg/kg, 24 h, dose level Low): 87.6 mg/dL
TP (15 mg/kg, 24 h, dose level Low): 5.6 g/dL
gamma-GTP (15 mg/kg, 24 h, dose level Low): 1 IU/L
TERMINAL_BW [2]: 190.4 g
APTT [2]: 20 s
Bas [2]: 0%
Eos [2]: 0.8%
Fbg [2]: 281.6 mg/dL
Hb [2]: 13 g/dL
Ht [2]: 38.9%
Lym [2]: 78%
MCH [2]: 20.6 pg
MCHC [2]: 33.4%
MCV [2]: 61.6 fL
Mono [2]: 2.6%
Neu [2]: 17.6%
PT [2]: 13.8 s
Plat [2]: 111.1 x10_4/uL
RBC [2]: 631.6 x10_4/ul
Ret [2]: 9.2%
WBC [2]: 101.7 x10_2/uL
KIDNEY_L [2]: 0.8 g
KIDNEY_R [2]: 0.8 g
KIDNEY_TOTAL [2]: 1.6 g
LIVER [2]: 8.3 g
ALP [2]: 1500.2 IU/L
ALT [2]: 35.8 IU/L
AST [2]: 72.6 IU/L
BUN [2]: 10 mg/dL
CRE [2]: 0.2 mg/dL
Ca [2]: 11.1 mg/dL
Cl [2]: 104.8 meq/L
DBIL [2]: 0.018 mg/dL
GLC [2]: 171.8 mg/dL
IP [2]: 8.7 mg/dL
K [2]: 4.4 meq/L
LDH [2]: 72.6 IU/L
Na [2]: 140.2 meq/L
PL [2]: 160.4 mg/dL
RALB [2]: 2.4 g/dL
TBIL [2]: 0.068 mg/dL
TC [2]: 86.6 mg/dL
TP [2]: 5.3 g/dL
gamma-GTP [2]: 1.4 IU/L
TERMINAL_BW [3]: 187.5 g
APTT [3]: 17.2 s
Bas [3]: 0%
Eos [3]: 0.6%
Fbg [3]: 278.4 mg/dL
